Measured values reported in patent US10876076B2, “Detergents and cleaning agents having improved performance” (Henkel AG & Co. KGaA, priority 2016, dated 2020).

Assay: Water solubility
Assay type: physicochemical
Settings: deionized water, pH 7, room temperature
Description: [drawing 6] 2,3-dihydroxyterephthalic acid dimethyl ester (12.89 g, 57 mmol) from step a) was suspended in N,N-dimethylethylenediamine (72.8 g, 809 mmol) and the reaction mixture was stirred for 24 hours at 100° C. After adding 100 ml of dimethylformamide (DMF), the excess of N,N-dimethylethylenediamine, together with the DMF, was removed by distillation. The solid obtained was washed 2 times using 300 ml of ethyl acetate, subsequently recrystallized from methanol/ethyl acetate (1:2.5) and dried in a vacuum. 9.6 g of 2,3-dihydroxy-N,N′-bis(2-(dimethylamino)ethyl)terephthaldiamide was obtained as a beige solid. The water solubility thereof (deionized water, pH 7, room temperature) was over 70 g/l.

solubility: > 70 mg/mL
Structure (SMILES): CN(C)CCNC(=O)c1ccc(C(=O)NCCN(C)C)c(O)c1O [S1, 2,3-dihydroxy-N,N′-bis(2-(dimethylamino)ethyl) terephthaldiamide]
